Data set [1] in a line: Octanol-water partition coefficient, log P of the compound. In kind it is physicochemical.
Data set [2] deals with A549. Briefly: Antitumor activity against human A549 cells xenografted in nude BALB/c mouse assessed as tumor growth inhibition at 3.51 umol/kg, ip administered on day 1, 4 and 7 post-inoculation measured up to 14 days. It counts as functional, organism-based.

The structures appear in SMILES notation. The source made the active and inactive calls. No cut-off for these calls is given here.

`CC(=O)O[C@H]1C(=O)[C@]2(C)[C@@H](OC(=O)CCC(=O)OC(COC(CO)CO)COC(CO)CO)C[C@H]3OC[C@@]3(OC(C)=O)[C@H]2[C@H](OC(=O)c2ccccc2)[C@]2(O)C[C@H](OC(=O)[C@H](O)[C@@H](NC(=O)c3ccccc3)c3ccccc3)C(C)=C1C2(C)C` gave a logP in data set [1] of 1.99.
For the molecule `CC(=O)O[C@H]1C(=O)[C@@]2(C)[C@H]([C@H](OC(=O)c3ccccc3)[C@]3(O)C[C@H](OC(=O)[C@H](O)[C@@H](NC(=O)CCC(=O)OC(COC(CO)CO)COC(CO)CO)c4ccccc4)C(C)=C1C3(C)C)[C@]1(OC(C)=O)CO[C@@H]1C[C@@H]2O`, the “growth inhibition (GI)” value in data set [2] is “Active”. This molecule showed a logP in data set [1] of 1.46.
For `CC(=O)O[C@H]1C(=O)[C@@]2(C)[C@H]([C@H](OC(=O)c3ccccc3)[C@]3(O)C[C@H](OC(=O)[C@H](O)[C@@H](NC(=O)c4ccccc4)c4ccccc4)C(C)=C1C3(C)C)[C@]1(OC(C)=O)CO[C@@H]1C[C@@H]2O` [PACLITAXEL], in that order: “Active” and 2.25.
`CC(=O)O[C@H]1C(=O)[C@@]2(C)[C@H]([C@H](OC(=O)c3ccccc3)[C@]3(O)C[C@H](OC(=O)[C@H](OC(=O)CCC(=O)OC(COC(CO)CO)COC(CO)CO)[C@@H](NC(=O)c4ccccc4)c4ccccc4)C(C)=C1C3(C)C)[C@]1(OC(C)=O)CO[C@@H]1C[C@@H]2O` came in with a log partition coefficient (logP) in data set [1] of 2.26.
